Ki, ED30 and ED10 data for 23 compounds are collected here from ChEMBL document CHEMBL1126082, “Nucleosides and nucleotides. 107. 2-(cycloalkylalkynyl)adenosines: adenosine A2 receptor agonists with potent antihypertensive effects” (J Med Chem, 1992).

The target of experiment [1] is T1, Adenosine receptor A1 (Rattus norvegicus, UniProt P25099).
T1 sequence (P25099 whole entry): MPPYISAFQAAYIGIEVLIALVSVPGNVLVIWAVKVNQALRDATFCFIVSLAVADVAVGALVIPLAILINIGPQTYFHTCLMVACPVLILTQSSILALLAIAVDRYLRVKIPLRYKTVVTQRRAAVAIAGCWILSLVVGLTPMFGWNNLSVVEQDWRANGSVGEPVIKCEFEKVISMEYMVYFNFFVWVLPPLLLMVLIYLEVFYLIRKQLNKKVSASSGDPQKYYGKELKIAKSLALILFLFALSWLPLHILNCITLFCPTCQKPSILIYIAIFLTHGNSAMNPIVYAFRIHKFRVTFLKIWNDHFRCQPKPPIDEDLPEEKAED
Description: Inhibition of [3H]CHA binding to adenosine A1 receptor from rat brain membranes. In kind it is cell membranes, Membrane.

Experiment [2] concerns the target Adenosine A2 receptor (Rattus norvegicus, UniProt P29276+P30543).
Description: Inhibition of [3H]NECA binding to adenosine A2 receptor from rat striatal membranes
Experiment [3] has as its system Rattus norvegicus. Description: Dose producing 30% decrease in blood pressure of anesthetized spontaneous hypertensive male rat(SHR). The format is functional.
Experiment [4] deals with Rattus norvegicus. Description: Dose producing 10% decrease in heart rate of anaesthetized spontaneous hypertensive male rat(SHR). The format is functional.

The term Ki denotes the equilibrium dissociation constant of an inhibitor or competing ligand from its target. Consider `Nc1nc(C#CCCc2ccccc2)nc2c1ncn2[C@@H]1O[C@H](CO)[C@@H](O)[C@H]1O`, for which the Ki came to 400 nM in experiment [1] and 37 nM in experiment [2]. In experiment [3], the ED30 was determined as 1.21 µg/kg. In experiment [4], this compound came in with an ED10 above 100 µg/kg.
With `Nc1nc(C#CC2CCCCC2)nc2c1ncn2C1O[C@H](CO)[C@@H](O)[C@H]1O` (stereo not given in full), the Ki in experiment [1] was found to be 138 nM; in experiment [2], 10 nM. In addition, in experiment [3], the ED30 stood at 0.36 µg/kg. In addition, in experiment [4], the ED10 is above 100 µg/kg.
For `Nc1nc(C#CCO)nc2c1ncn2[C@@H]1O[C@H](CO)[C@@H](O)[C@H]1O`, the Ki was determined as 8.3 nM in experiment [1] and 20 nM in experiment [2]. The compound further gave an ED30 in experiment [3] of 0.36 µg/kg. The same compound yielded an ED10 in experiment [4] of 0.74 µg/kg.
With `CCCCCCC#Cc1nc(N)c2ncn([C@@H]3O[C@H](CO)[C@@H](O)[C@H]3O)c2n1`, the Ki was found to be 133 nM in experiment [1] and 7.9 nM in experiment [2]. For the same compound, the ED30 in experiment [3] worked out at 0.2 µg/kg. This compound also yielded an ED10 in experiment [4] above 100 µg/kg.
On the same counts, the results for `Nc1nc(C#CCCCC2CCCCC2)nc2c1ncn2C1O[C@H](CO)[C@@H](O)[C@H]1O` (stereo not given in full) are above 229 nM, 46 nM, 1.64 µg/kg and above 100 µg/kg.
Consider `Nc1nc(C#CCCC2CCCCC2)nc2c1ncn2C1O[C@H](CO)[C@@H](O)[C@H]1O` (stereo not given in full), for which the Ki in experiment [1] was found to be 313 nM; in experiment [2], 26 nM. Further, the ED30 in experiment [3] came out at 0.48 µg/kg. In experiment [4], this compound registered an ED10 above 100 µg/kg.
Turning to `Nc1nc(C#CC(O)c2ccccc2)nc2c1ncn2[C@@H]1O[C@H](CO)[C@@H](O)[C@H]1O` (stereo not given in full), the Ki in experiment [1] came to 3.4 nM; in experiment [2], 1.9 nM. Moreover, the ED30 in experiment [3] amounted to 0.05 µg/kg. Besides, in experiment [4], the ED10 was determined as 1.3 µg/kg.
Consider `Nc1nc(C#CC2(O)CCCCCCC2)nc2c1ncn2[C@@H]1O[C@H](CO)[C@@H](O)[C@H]1O`, for which the ED30 in experiment [3] was 0.01 µg/kg. For the same compound, the ED10 in experiment [4] was 13 µg/kg.
On to `Nc1nc(C#CC2CCCC2)nc2c1ncn2[C@@H]1O[C@H](CO)[C@@H](O)[C@H]1O`, for which the Ki in experiment [1] stood at 88 nM; in experiment [2], 12 nM. This compound displayed an ED30 in experiment [3] of 0.29 µg/kg. The compound further came in with an ED10 in experiment [4] above 100 µg/kg.
For `CCCCC#Cc1nc(N)c2ncn([C@@H]3O[C@H](CO)[C@@H](O)[C@H]3O)c2n1`, in experiment [3], the ED30 is 0.11 µg/kg. The compound further gave an ED10 in experiment [4] of 67 µg/kg.
With `COc1cc(OC)cc(C(CNc2ncnc3c2ncn3[C@@H]2O[C@H](CO)[C@@H](O)[C@H]2O)c2ccccc2C)c1` (stereo not given in full), the Ki in experiment [1] was 108 nM; in experiment [2] it was 6.9 nM. This compound came in with an ED10 in experiment [4] above 100 µg/kg.
`Nc1nc(C#CC2(O)CCCCC2)nc2c1ncn2[C@@H]1O[C@H](CO)[C@@H](O)[C@H]1O` gave an ED30 in experiment [3] of 0.02 µg/kg. In experiment [4], the ED10 is 3.5 µg/kg.
Consider `CCCC(O)C#Cc1nc(N)c2ncn(C3O[C@H](CO)[C@@H](O)[C@H]3O)c2n1` (stereo not given in full), for which the Ki was determined as 16 nM in experiment [1] and 1.8 nM in experiment [2]. The ED30 in experiment [3] was 0.04 µg/kg. The compound further had an ED10 in experiment [4] of 0.83 µg/kg.
`Nc1nc(C#CCC2CCCC2)nc2c1ncn2[C@@H]1O[C@H](CO)[C@@H](O)[C@H]1O` had a Ki in experiment [2] of 2.3 nM. Moreover, the ED30 in experiment [3] amounted to 0.05 µg/kg. In experiment [4], this compound returned an ED10 above 100 µg/kg.
With `Nc1nc(C#CCCC2CCCC2)nc2c1ncn2C1O[C@H](CO)[C@@H](O)[C@H]1O` (stereo not given in full), the inhibition constant Ki in experiment [1] stood at 136 nM; in experiment [2], 3.4 nM. In experiment [3], this compound gave an ED30 of 0.16 µg/kg. The compound also gave an ED10 in experiment [4] above 100 µg/kg.
For the compound `CC(O)C#Cc1nc(N)c2ncn([C@@H]3O[C@H](CO)[C@@H](O)[C@H]3O)c2n1` (stereo not given in full), the Ki in experiment [1] is 15 nM; in experiment [2], 18 nM. Also, the ED30 in experiment [3] was 0.15 µg/kg. In experiment [4], the ED10 was found to be 0.8 µg/kg.
As to `CC(C)(O)C#Cc1nc(N)c2ncn([C@@H]3O[C@H](CO)[C@@H](O)[C@H]3O)c2n1`, the Ki in experiment [1] amounted to 32 nM; in experiment [2] it was 19 nM. In experiment [3], the ED30 amounted to 0.14 µg/kg. In experiment [4], this compound returned an ED10 of 1.4 µg/kg.
As to `CCNC(=O)[C@H]1O[C@@H](n2cnc3c(N)nc(NCCc4ccc(CCC(=O)O)cc4)nc32)[C@H](O)[C@@H]1O` [CGS-21680], the ED30 in experiment [3] turned out to be 0.97 µg/kg. Also, the ED10 in experiment [4] is above 100 µg/kg.
Regarding `Nc1nc(C#Cc2ccccc2)nc2c1ncn2[C@@H]1O[C@H](CO)[C@@H](O)[C@H]1O`, the Ki in experiment [1] was 701 nM; in experiment [2], 109 nM. For the same compound, the ED30 in experiment [3] stood at 10.1 µg/kg. Also, in experiment [4], the ED10 is above 100 µg/kg.
For the compound `CCCCCC(O)C#Cc1nc(N)c2ncn(C3O[C@H](CO)[C@@H](O)[C@H]3O)c2n1` (stereo not given in full), the Ki in experiment [1] was 11 nM; in experiment [2] it was 2 nM. This compound also showed an ED30 in experiment [3] of 0.06 µg/kg. The ED10 in experiment [4] was 0.45 µg/kg.
`Nc1nc(C#CC2(O)CCCCCC2)nc2c1ncn2[C@@H]1O[C@H](CO)[C@@H](O)[C@H]1O`: the figures for the inhibitory constant (Ki) in experiment [1] and in experiment [2] were 27 nM and 1.1 nM, respectively. Besides, in experiment [3], the ED30 came to 0.02 µg/kg. The compound also had an ED10 in experiment [4] of 5.6 µg/kg.
Take `Nc1nc(C#CC2(O)CCCC2)nc2c1ncn2C1O[C@H](CO)[C@@H](O)[C@H]1O` (stereo not given in full): the values for the Ki in experiment [1] and in experiment [2] were 11 nM and 3.3 nM, respectively. The ED30 in experiment [3] came to 0.07 µg/kg. The compound further displayed an ED10 in experiment [4] of 1.6 µg/kg.
In turn, `Nc1nc(C#CCC2CCCCC2)nc2c1ncn2C1O[C@H](CO)[C@@H](O)[C@H]1O` (stereo not given in full) displayed an ED30 in experiment [3] of 0.15 µg/kg. Moreover, in experiment [4], the ED10 was above 100 µg/kg.
